Results on 19 compounds are retold here after patent US20220332699A1 (SAGE THERAPEUTICS, INC., priority 2019, published 2022).

What is called Papp A→B is the apparent permeability from the apical to the basolateral side of a cell layer. High values mean ready permeation, low ones poor permeation. By IC50 is commonly meant the point on the concentration scale where inhibition reaches its midpoint.

Some results are limits rather than exact numbers.

In one series the test system is P-gp (MDR1). Put plainly: Compound permeability and efflux across a MDCK-MDR1 cellular membrane. Format: in vitro ADME, canine. To be noted: dog, pH 7.4, MDCK-MDR1 cell monolayer; for Papp A→B at 2.5 h, 2 µM: A to B; for efflux ratio at 2.5 h, 2 μM: read-out: MDCK Effux Ratio (B:A/A:B). The protocol: MDR1-MDCKII cells (obtained from Piet Borst at the Netherlands Cancer Institute) were seeded onto […] (PET) in 96-well BD insert systems at 2.5×10^5 cells/mL and grown for 4-7 days until confluent cell monolayer formation.
Transport buffer for test compound was HBSS with 10 mM Hepes (pH 7.4±0.05) with or without 1% BSA and with or without GF120918. Transport buffer for reference compound was HBSS with 10 mM Hepes (pH 7.4±0.05) with or without GF120918. Test and reference compounds (digoxin, nadolol and metoprolol) were diluted with transport buffer from stock solution to a concentration of 2 μM (DMSO<1%) and applied to the apical or basolateral side of the cell monolayer. Permeation of the test compounds from A to B direction or B to A direction was determined in triplicate with and without P-gp inhibitor (GF120918, 10 μM). Digoxin was tested at 10 μM in the presence or absence of 10 μM GF120918 bi-directionally as well, while nadolol and metoprolol were tested at 2 μM in the absence of GF120918 in A to B direction in duplicate. The plate was incubated for 2.5 h in a CO2 incubator at 37±1° C., with 5% CO2 at saturated humidity without shaking. Test and reference compounds were quantified by LC/MS/MS analysis based on the peak area ratio of analyte/IS.
Six wells per 96-well plate were selected for the lucifer yellow rejection assay to determine the cell monolayer integrity. Thus, 75 μL of 100 μM lucifer yellow in transport buffer and 250 μL transport buffer were added to apical and basolateral chambers, respectively. The plate was incubated for 150 min at 37° C. with 5% CO2 and 95% relative humidity without shaking. After 150 minutes incubation, 20 μL of lucifer yellow samples were taken from the apical sides, followed by the addition of 60 μL of Transport Buffer, and then 80 μL of lucifer yellow samples were taken from the basolateral sides. The relative fluorescence unit (RFU) of lucifer yellow was measured at 425/528 nm (excitation/emission) with a Envision plate reader.
The apparent permeability coefficient Papp (cm/s) was calculated using the equation: […]
wherein dCr/dt is the cumulative concentration of compound in the receiver chamber as a function of time (μM/s); Vr is the solution volume in the receiver chamber (0.075 mL on the apical side, 0.25 mL on the basolateral side); A is the surface area for the transport, i.e. 0.0804 cm^2 for the area of the monolayer; C0 is the initial concentration in the donor chamber (μM).
The efflux ratio was calculated using the equation:
Efflux Ratio=Papp(BA)/Papp(AB)

Another series deals with CYP46A1 (Homo sapiens, UniProt Q9Y6A2). Briefly: CYP46A1 Enzyme Assay 2 (testosterone substrate, HPLC-MS). It is filed as biochemical. To be noted: read-out: IC50 (CYP46A1 inhibitory activity). A digest of the protocol:
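CYP46A1 (5 μM final) with testosterone ([…] final) preincubated with compound 30 min at 37° C, reaction started with NADPH-generating system and run 15 min at 37° C. Quenched in methanol containing diclofenac internal standard; product read by HPLC-MS.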

Series [1] is described as follows: Compound stability in cryopreserved human hepatocytes. It is filed as in vitro ADME. The following applies: pooled cryopreserved human hepatocytes, read-out: Human Hep Clint. As for the experimental part:
Pooled cryopreserved human hepatocytes from 10 donors were obtained from BioreclamationIVT (Cat No. X008001, Lot MMN). Test compounds (20 μL of 1 mM stock solution in DMSO) and control compounds 7-ethoxycoumarin and 7-hydroxycoumarin (20 μL of 3 mM stock solutions in DMSO) were diluted with 380 μL of 45% MeOH/H2O to obtain 50 μM solutions of test compound and 150 μM solutions of control compounds. Then 50 μL of these respective solutions were mixed with 450 μL of pre-warmed Williams' Medium E to obtain 5 μM test compound and 15 μM control compound solutions; and in duplicate 10 μL of these solutions were added to appropriate wells in a 96-well plate corresponding to incubation times T0, T15, T30, T60 and T90 and kept at 37° C. Cryopreserved human hepatocytes were thawed, isolated and suspended in Williams' Medium E, then diluted with pre-warmed William' Medium E to a concentration of 0.625×10^6 cells/mL. The reaction was started by aliquoting 40 μL of the hepatocytes into the 96-well plates containing 10 μL of the test and control compounds and incubated at 37° C. with 5% CO2. Stop solution (acetonitrile containing 200 ng/mL tolbutamide and labetalol as internal standards) was added at the requisite time (15, 30, 60, or 90 minutes). Hepatocytes were not added to the T0 samples, which were rather directly treated with stop solution. Medium control (MC) sample plates (T0-MC and T90-MC) were incubated in identical fashion as for the test samples, but without addition of hepatocytes and stop solution was added at the requisite times. The plates were vortexed immediately after addition of stop solution and placed on a plate shaker at 500 rpm for 10 min, then centrifuged at 3220×g for 20 min. The supernatants were transferred to 96-deep-well plates, sealed and stored at 4° C. until LC-MS-MS analysis. The concentration of compound remaining was determined by LC-MS-MS and plotted versus time. […]
Cutoff values determined by the hepatocyte stability assay are in Table 2 below: […]

Chain of CYP46A1 (Q9Y6A2 whole entry): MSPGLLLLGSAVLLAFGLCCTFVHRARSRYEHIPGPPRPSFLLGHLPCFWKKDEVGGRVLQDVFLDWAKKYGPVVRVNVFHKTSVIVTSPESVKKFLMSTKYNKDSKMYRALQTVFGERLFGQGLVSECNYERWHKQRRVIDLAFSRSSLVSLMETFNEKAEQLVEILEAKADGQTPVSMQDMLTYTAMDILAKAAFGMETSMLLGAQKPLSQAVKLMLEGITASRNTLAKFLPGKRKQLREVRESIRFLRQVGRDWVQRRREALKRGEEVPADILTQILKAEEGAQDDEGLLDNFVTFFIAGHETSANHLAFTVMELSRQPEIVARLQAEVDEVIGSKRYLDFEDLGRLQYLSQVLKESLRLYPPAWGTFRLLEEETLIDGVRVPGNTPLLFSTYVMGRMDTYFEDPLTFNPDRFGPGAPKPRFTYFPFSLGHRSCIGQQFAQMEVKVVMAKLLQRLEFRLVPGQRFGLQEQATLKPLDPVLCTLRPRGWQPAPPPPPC

As for `N#CC1(Cc2ccccc2)CCN(C(=O)c2cccnc2-c2ccncc2)CC1` [Compound A32, 1-([2,4′-bipyridine]-3-carbonyl)-4-benzylpiperidine-4-carbonitrile], in the series on P-gp (MDR1), the Papp A→B at 2.5 h, 2 µM worked out at 28 ×10⁻⁶ cm/s and the efflux ratio at 2.5 h, 2 μM was found to be 1.2. The IC50 at CYP46A1 was under 100 nM. Further, the CLint scaled at 1 µM in series [1] was under 18 mL/min/kg.

Turning to `N#CC1(Cc2ccc(F)cc2)CCN(C(=O)c2cccnc2-c2ccncc2)CC1` [Compound A14, 1-([2,4′-bipyridine]-3-carbonyl)-4-(4-fluorobenzyl)piperidine-4-carbonitrile], in the series with P-gp (MDR1), the Papp A→B at 2.5 h, 2 µM stood at 21 ×10⁻⁶ cm/s and the efflux ratio at 2.5 h, 2 μM amounted to 1.2. Moreover, the IC50 on CYP46A1 was under 100 nM. Moreover, the CLint scaled at 1 µM in series [1] is under 18 mL/min/kg.

In the case of `N#CC1(Cc2ccc(F)c(F)c2)CCN(C(=O)c2cccnc2-c2ccncn2)CC1` [Compound A206, 4-(3,4-difluorobenzyl)-1-(2-(pyrimidin-4-yl)nicotinoyl)piperidine-4-carbonitrile], the IC50 on CYP46A1 is under 100 nM.

As for `N#CC1(Cc2ccc(F)cc2C(F)(F)F)CCN(C(=O)c2cccnc2-c2ccncn2)CC1` [Compound A276, 4-(4-fluoro-2-(trifluoromethyl)benzyl)-1-(2-(pyrimidin-4-yl)nicotinoyl)piperidine-4-carbonitrile], the IC50 on CYP46A1 is 100 to 1000 nM.

Consider `N#CC1(Cc2ccc(F)cc2)CCN(C(=O)c2ccccc2-c2ccncn2)CC1` [Compound A229, 4-(4-fluorobenzyl)-1-(2-(pyrimidin-4-yl)benzoyl)piperidine-4-carbonitrile], for which the IC50 on CYP46A1 was under 100 nM.

With `CCc1ccc(CC2(C#N)CCN(C(=O)c3cccnc3-c3ccncn3)CC2)cc1` [Compound A208, 4-(4-ethylbenzyl)-1-(2-(pyrimidin-4-yl)nicotinoyl)piperidine-4-carbonitrile], the IC50 at CYP46A1 was under 100 nM.

Take `N#CC1(Cc2ccccc2F)CCN(C(=O)c2cccnc2-c2ccncc2)CC1` [Compound A12, 1-{[2,4′-bipyridine]-3-carbonyl}-4-[(2-fluorophenyl)methyl]piperidine-4-carbonitrile]: the IC50 at CYP46A1 was under 100 nM.

`N#CC1(Cc2cc(F)cc(F)c2)CCN(C(=O)c2cccnc2-c2ccncc2)CC1` [Compound A70, 1-([2,4′-bipyridine]-3-carbonyl)-4-(3,5-difluorobenzyl)piperidine-4-carbonitrile]: the IC50 on CYP46A1 is under 100 nM.

With `N#CC1(Cc2ccc(-c3ccccc3)cc2)CCN(C(=O)c2cccnc2-c2ccncc2)CC1` [Compound A19, 4-([1,1′-biphenyl]-4-ylmethyl)-1-([2,4′-bipyridine]-3-carbonyl)piperidine-4-carbonitrile], at CYP46A1, the IC50 is under 100 nM.

As for `N#CC1(Cc2c(F)cccc2F)CCN(C(=O)c2cccnc2-c2ccncn2)CC1` [Compound A207, 4-(2,6-difluorobenzyl)-1-(2-(pyrimidin-4-yl)nicotinoyl)piperidine-4-carbonitrile], the IC50 at CYP46A1 is under 100 nM.

In the case of `N#CC1(Cc2ccc(F)c(C(F)(F)F)c2)CCN(C(=O)c2cccnc2-c2ccncc2)CC1` [Compound A278, 1-([2,4′-bipyridine]-3-carbonyl)-4-(4-fluoro-3-(trifluoromethyl)benzyl)piperidine-4-carbonitrile], at CYP46A1, the IC50 was under 100 nM.

With `C[C@@H](c1ccc(F)cc1)C1(C#N)CCN(C(=O)c2cccnc2-c2ccncn2)CC1` [Compound A44, (S)-4-(1-(4-fluorophenyl)ethyl)-1-(2-(pyrimidin-4-yl)nicotinoyl)piperidine-4-carbonitrile], the IC50 on CYP46A1 is under 100 nM.

`CC[C@@H](c1ccc(F)cc1)C1(C#N)CCN(C(=O)c2cccnc2-c2ccncn2)CC1` [Compound A216, (S)-4-(1-(4-fluorophenyl)propyl)-1-(2-(pyrimidin-4-yl)nicotinoyl)piperidine-4-carbonitrile]: at CYP46A1, the IC50 was under 100 nM.

For `N#CC1(CC2CC(F)(F)C2)CCN(C(=O)c2cccnc2-c2ccncn2)CC1` [Compound A54, 4-((3,3-difluorocyclobutyl)methyl)-1-(2-(pyrimidin-4-yl)nicotinoyl)piperidine-4-carbonitrile], on CYP46A1, the IC50 was 100 to 1000 nM.

Take `N#CC1(Cc2ccc(C(F)(F)F)cc2F)CCN(C(=O)c2cccnc2-c2ccncc2)CC1` [Compound A255, 1-([2,4′-bipyridine]-3-carbonyl)-4-(2-fluoro-4-(trifluoromethyl)benzyl)piperidine-4-carbonitrile]: the IC50 on CYP46A1 was under 100 nM.

As to `C[C@H](c1c(F)cccc1F)C1(C#N)CCN(C(=O)c2cccnc2-c2ccncn2)CC1` [Compound A243, (S)-4-(1-(2,6-difluorophenyl)ethyl)-1-(2-(pyrimidin-4-yl)nicotinoyl)piperidine-4-carbonitrile], the IC50 at CYP46A1 is under 100 nM.

Consider `N#CC1(Cc2cccc3ccccc23)CCN(C(=O)c2cccnc2-c2ccncn2)CC1` [Compound A225, 4-(naphthalen-1-ylmethyl)-1-(2-(pyrimidin-4-yl)nicotinoyl)piperidine-4-carbonitrile], for which, at CYP46A1, the IC50 was under 100 nM.

Take `N#CC1(Cc2ccc(C3CC3)cn2)CCN(C(=O)c2cccnc2-c2ccncn2)CC1` [Compound A226, 4-((5-cyclopropylpyridin-2-yl)methyl)-1-(2-(pyrimidin-4-yl)nicotinoyl)piperidine-4-carbonitrile]: the IC50 on CYP46A1 fell in the range of 100 to 1000 nM.

Take `N#CC1(Cc2ccc(C(F)(F)F)nc2)CCN(C(=O)c2cccnc2-c2ccncn2)CC1` [Compound A222, 1-(2-(pyrimidin-4-yl)nicotinoyl)-4-((6-(trifluoromethyl)pyridin-3-yl)methyl)piperidine-4-carbonitrile]: the IC50 at CYP46A1 was in the range of 100 to 1000 nM.
